{"source": "patent US20080260682A1", "about": "“Polyethylene glycol colonic purgative composition” (Salix Pharmaceuticals, Inc., priority 2005, published 2008)", "tested_on": "normal healthy subjects", "settings": "in vivo", "protocol": "In addition, the safety and tolerability of the PEG 8000 was evaluated.\nThis study was a double-blinded, randomized, crossover study with 16 healthy male subjects. Subjects were randomly assigned to one of two dosing sequences: Sequence A (n=9) or Sequence B (n=6). For each dosing sequence there were three scheduled visits: a screening visit (Visit 0) and two treatment visits (Visits 1 and 2). […] At the beginning of day 4, the standardized diet ended and subjects were given a low fiber breakfast followed by clear liquids for the rest of the day. On day 5, patients received nothing by mouth (NPO) after the administration of the test materials.\nA baseline period measurement period began at 6 p.m. on day 2 and lasted 48 hours. During the baseline period, all bowel movements were collected, recorded, and assessed for consistency and weight. At 6 p.m. on day 4, the test article administration began. […] In both dosing sequences, Visit I was followed by a two-week washout period before subjects crossed over to begin visit 2. During the observation period of test article administration, all bowel movements were collected, recorded, and assessed for consistency and weight. The observation period of test article administration began when the test article was administered and continued until 11 a.m. on day 5.\nSubjects drank another 5 doses in the same manner beginning at 6:00 a.m. on day 5.", "data": [{"substance": "polyethylene glycol 8000 [PEG 8000]", "values": [{"measurement": "serious events, severe events, deaths", "result": "no serious events, no severe events, and no deaths"}]}]}
